According to US4956389A, “Compounds having calcium blocking activity” (priority 1982, dated 1990):
Like-named read-outs stand apart in the source and are kept apart here.

How the values were obtained:
[1] = tested on: aorta of rabbits; assay: Antagonistic activity on the contractions produced by arachidonic acid on the aorta of rabbits, study in vitro; parameters: species or system rabbit
Description: The study has been carried out by comparison with Nicardipine using autologous blood as the perfusion liquid. The addition of 0.1 mg of arachidonate to the liquid induces an isometric contraction of the aorta which is registered by a transducer. […] This phenomenon is shown by the relaxation which follows the addition of arachidonate to the perfusion blood. This effect may be noted with 0.1 mg/kg of YS 035 and 1 mg/kg of Nicardipine.

[2] = tested on: rats; assay: Effect on the multiple cerebral infarct in rats (intracarotid sodium arachidonate); assay type: in vivo, rat; conditions: 15 minutes prior to the infarct
Description: The intracarotid injection of sodium arachidonate (0.1 mg) causes in rats an edema reaction accompanied by an accumulation of calcium in the brain tissue and a decrease, on the other hand, of the cholesterol level.

[3] = tested on: dogs; assay: Effect on the myocardial infarct in the subacute phase in dogs (method of Harris); assay type: in vivo, dog; conditions: 0.1 mg/kg intravenously, three times within 48 hours
Description: The tying up of the […] coronary artery by the method of Harris causes the following effects:
The treatment with YS 035 in the dose of 0.1 mg/kg intravenously, carried after tying the coronary artery and three times within 48 hours in the same dose has provided the following results: […]

[4] = tested on: synaptosomes of the brain of rats; assay: Inhibition of the Ca2+-uptake in synaptosomes of the brain of rats; assay type: biochemical, rat; conditions: 250 μM
Description: The synaptosomes have been prepared from an homogenate of the brain of rats by centrifugation in the gradient of Filcoll at 23,500 rpm for a period of 30 minutes and diluted to 1.5 mg/cc in the medium constituted by:
After 15 minutes of preincubation, ^45 CaCl2, final concentration 1 mM (0.2μCi/cc is added to the medium).
The first determination has been carried out two minutes after the addition. […] After each period, the reaction has been stopped by centrifugation and the radioactivity has been determined in the supernatant as well as in the pellet. The latter had been denatured previously with PCA, neutralized and subsequently centrifuged.

Question: How did the “Contraction of the first portion of the aorta” value ([1]; N = 4) turn out when COc1ccc(CCN(C)CCc2ccc(OC)c(OC)c2)cc1OC [YS 035, N-methyl-N-bis-(3,4-dimethoxy-phenyl-ethyl)amine] was run?
Answer: The value was 48 ± 6.7 mm.

Question: What about the inhibition at 0.01 mg/kg ([1]; Oryctolagus cuniculus, dose 0.01 mg·Kg^-1, read-out: Contraction of the second and third portion of the aorta, % Variation) of the same compound?
Answer: The inhibition at 0.01 mg/kg was 42 ± 31%.

Question: And the inhibition at 0.1 mg/kg ([1]; Oryctolagus cuniculus, dose 0.1 mg·Kg^-1, second and third portion, read-out: % Variation, small contractions observed occasionally prior to relaxation (value in brackets))?
Answer: The inhibition at 0.1 mg/kg was 60 ± 29.3%.

Question: What about the inhibition at 1 mg/kg ([1]; Oryctolagus cuniculus, dose 1.0 mg·Kg^-1, read-out: Contraction of the second and third portion of the aorta, % Variation) of the same compound?
Answer: Its inhibition at 1 mg/kg is 132 ± 16.1%.

Question: What about the inhibition at 1 mg/kg ([1]; Oryctolagus cuniculus, line without dose, below dose 1.0 mg·Kg^-1, read-out: Contraction of the second and third portion of the aorta, % Variation) of the same compound?
Answer: Its inhibition at 1 mg/kg is 16%.

Question: And the minimal effective dose ([1]; Oryctolagus cuniculus, autologous blood perfusion, 0.1 mg arachidonate, read-out: dose at which relaxation following the addition of arachidonate is noted)?
Answer: The minimal effective dose was 0.1 mg/kg.

Question: And the “inhibitory effect on the contraction produced by the arachidonate (in words)” value ([1]; YS 035 compared with Nicardipine)?
Answer: Its value is “comparable”.

Question: And the “entry of calcium in brain tissue (in words)” value ([2]; 1 mg/kg intravenously)?
Answer: Its value is “reduces moderately the entry of calcium”.

Question: And the “other changes at the biochemical level (in words)” value ([2]; intravenously, 1, 3.3 and 10 mg/kg)?
Answer: The value was “no effect”.

Question: What about the “consumption of glucose in the myocardium (in words)” value [3] of the same compound?
Answer: The value was “not changed”.

Question: What about the “consumption of lactate (in words)” value [3] of the same compound?
Answer: The value was “has a tendency to return to normality”.

Question: And the “consumption of oxygen (in words)” value [3]?
Answer: The value was “increases substantially”.

Question: What about the “coronary blood flow (in words)” value [3] of the same compound?
Answer: The value was “remains similar to that of the control groups, or at the most tends to increase moderately”.

Question: What about the “coronary vascular resistance (in words)” value [3] of the same compound?
Answer: Its value is “not only is reduced, but becomes inferior to that of the control group”.

Question: And the “index of the aortic flow (in words)” value [3]?
Answer: Its value is “not changed”.

Question: And the “index of work of the left ventricle (in words)” value [3]?
Answer: Its value is “significantly higher than that present in the dogs with the infarct”.

Question: And the “ratio DPTI/TTI (in words)” value [3]?
Answer: Its value is “not changed”.

Question: What about the “uptake of the free fatty acids (in words)” value [3] of the same compound?
Answer: The value was “increases and reaches also a value twice the basal flow measured in healthy control animals”.

Question: What about the “inhibitory activity on the calcium uptake (in words)” value [4] of the same compound?
Answer: The value was “comparable to the activity exhibited by Nifedipine”.

Question: What about the “Ca2+-uptake” value ([4]; 45CaCl2 1 mM, control 80 ± 7) of the same compound?
Answer: Its value is 47 ± 4 n g ions/mg prot/15 min.
